# Assay: Technical batch stability study, 2-butanol and 2-pentanone assay by gas chromatography
# Type: physicochemical
# Details: in Formulation 4, sealed LICAPS
smiles,measurement,setting,value
"CCCC(C)=O [Formulation 2-pentanone, 2-pentanone]","assay, % label claim",6 months at 25° C./60% RH in PET/Alu/PE bags,100.3%
same,"assay, % label claim",6 months at 40° C./75% RH in PET/Alu/PE bags,99.8%
